Source: patent US20230116703A1, “NOVEL ERGOLINES AND METHODS OF TREATING MOOD DISORDERS” (priority 2021, published 2023)
Read-outs that look alike come from different tables or passages of the source.

Key:
5-HT2A receptor [1] = biological target: T1, 5-HT2A receptor (Homo sapiens, UniProt P28223); assay: cell-based; format: cell-based; conditions: for EC50: Ca^2+ flux, agonist, read-out: 5-HT2A EC50
T1 construct: host or cells: HEK293

5-HT1A receptor = biological target: T2, 5-HT1A receptor (Homo sapiens, UniProt P08908); assay: cell-based; conditions: Ca^2+ flux, agonist; read-out: 5-HT1A EC50
T2 construct: host or cells: CHO cells
T2 sequence (P08908 1-422): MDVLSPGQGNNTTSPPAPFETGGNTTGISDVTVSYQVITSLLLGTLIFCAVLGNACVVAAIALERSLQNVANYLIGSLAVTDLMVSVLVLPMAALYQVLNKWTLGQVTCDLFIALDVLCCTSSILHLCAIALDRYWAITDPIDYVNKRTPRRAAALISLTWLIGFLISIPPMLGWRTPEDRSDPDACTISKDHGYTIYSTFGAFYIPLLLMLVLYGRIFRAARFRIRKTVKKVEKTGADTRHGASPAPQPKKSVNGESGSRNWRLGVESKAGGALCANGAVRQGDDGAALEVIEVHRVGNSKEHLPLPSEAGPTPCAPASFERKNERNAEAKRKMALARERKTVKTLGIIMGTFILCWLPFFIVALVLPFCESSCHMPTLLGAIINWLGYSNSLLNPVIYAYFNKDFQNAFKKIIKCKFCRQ

5-HT2B receptor = biological target: T3, 5-HT2B receptor (Homo sapiens, UniProt P41595); assay: cell-based; conditions: Ca^2+ flux, agonist; for EC50: read-out: 5-HT2B EC50
T3 construct: host or cells: HEK293
T3 sequence (P41595 whole entry): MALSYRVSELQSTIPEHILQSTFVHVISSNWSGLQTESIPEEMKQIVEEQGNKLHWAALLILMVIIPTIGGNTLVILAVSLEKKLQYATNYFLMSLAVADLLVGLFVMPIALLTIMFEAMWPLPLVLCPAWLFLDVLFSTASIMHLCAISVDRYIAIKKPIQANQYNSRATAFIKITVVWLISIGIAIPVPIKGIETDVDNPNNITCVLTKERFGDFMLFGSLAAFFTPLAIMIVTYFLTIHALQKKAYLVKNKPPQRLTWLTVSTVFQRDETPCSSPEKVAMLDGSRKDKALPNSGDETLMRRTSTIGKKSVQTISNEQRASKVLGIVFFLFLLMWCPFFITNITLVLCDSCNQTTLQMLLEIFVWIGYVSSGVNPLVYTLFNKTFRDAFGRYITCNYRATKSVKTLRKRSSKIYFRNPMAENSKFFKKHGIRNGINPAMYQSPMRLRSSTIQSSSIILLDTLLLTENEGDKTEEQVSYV

5-HT2A receptor [2] = biological target: T1, 5-HT2A receptor; assay: PathHunter beta-arrestin recruitment assay at 5-HT2A; format: cell-based; conditions: for agonist type in arrestin recruitment assay (in words): 5-HT2A beta-arrestin
How it was run: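 Cells co-express PK-tagged 5-HT2A and beta-arrestin fused to a beta-galactosidase deletion mutant, so arrestin recruitment restores enzyme activity, read by chemiluminescence; cells were held at 37° C before testing. Agonist % activity = RLU over vehicle, relative to the maximal control ligand.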

D1 receptor = D1 receptor (Homo sapiens, UniProt P21728); assay: FLIPR Ca^2+ flux agonist assay at D1; format: cell-based
Chain of D1 receptor (P21728 whole entry): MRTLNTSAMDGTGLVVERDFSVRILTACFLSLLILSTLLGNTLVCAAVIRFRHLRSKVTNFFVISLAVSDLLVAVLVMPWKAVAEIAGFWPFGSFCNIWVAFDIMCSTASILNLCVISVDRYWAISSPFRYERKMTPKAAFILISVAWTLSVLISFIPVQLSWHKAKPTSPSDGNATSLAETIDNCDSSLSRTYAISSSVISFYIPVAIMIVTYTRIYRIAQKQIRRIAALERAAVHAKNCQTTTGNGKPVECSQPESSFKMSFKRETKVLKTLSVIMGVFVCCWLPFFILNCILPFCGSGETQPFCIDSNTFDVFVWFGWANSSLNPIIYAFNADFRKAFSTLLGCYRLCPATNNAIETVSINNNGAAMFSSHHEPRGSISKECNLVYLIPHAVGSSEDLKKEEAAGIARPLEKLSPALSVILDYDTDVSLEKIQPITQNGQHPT
Description: Functional Assays at Adrenergic and Dopamine Receptors. Agonist activity at Alpha1A, Alpha2A, D1, and D2 receptors was determined using a FLIPR Ca^2+ flux assay at WuXi AppTec (Hong Kong) Limited according to their standard protocols. Briefly, stably transfected cells expressing the receptor of interest were grown and plated in a 384 well plate and incubated at 37° C. and 5% CO2 overnight. A solution of 250 mM probenecid in 1 mL FLIPR assay buffer was prepared fresh. This was combined with a fluorescent dye (Fluo-4 Direct™) to make a final assay concentration of 2.5 mM. […] The fluorescent dye was then added to the assay plate along with assay buffer to a final volume of 40 μL. The cell plate was incubated for 50 min at 37° C. and 5% CO2 and placed into the FLIPR Tetra along with the compound plate. 10 μL of references and compounds were then transferred from the compound plate into the cell plate and the fluorescent signal was read.

C57BL/6 mice = assay: Head twitch response (HTR) in mice; format: in vivo, mouse; conditions: SC; for ED50: 20 min, read-out: ED50 (95% CI); for ED50 / Most Efficacious Dose / Emax (95% CI): mouse HTR; for ED50 / Emax (95% CI): 20 min observation, curve fit, poor in some cases; for # HTR at Most Efficacious Dose: head twitches in 20 min
[3] = beta-arrestin recruitment, read-out: 5-HT2A Arrestin EC50
[4] = Ca^2+ flux, agonist, read-out: D1 EC50

T1 sequence (P28223 whole entry): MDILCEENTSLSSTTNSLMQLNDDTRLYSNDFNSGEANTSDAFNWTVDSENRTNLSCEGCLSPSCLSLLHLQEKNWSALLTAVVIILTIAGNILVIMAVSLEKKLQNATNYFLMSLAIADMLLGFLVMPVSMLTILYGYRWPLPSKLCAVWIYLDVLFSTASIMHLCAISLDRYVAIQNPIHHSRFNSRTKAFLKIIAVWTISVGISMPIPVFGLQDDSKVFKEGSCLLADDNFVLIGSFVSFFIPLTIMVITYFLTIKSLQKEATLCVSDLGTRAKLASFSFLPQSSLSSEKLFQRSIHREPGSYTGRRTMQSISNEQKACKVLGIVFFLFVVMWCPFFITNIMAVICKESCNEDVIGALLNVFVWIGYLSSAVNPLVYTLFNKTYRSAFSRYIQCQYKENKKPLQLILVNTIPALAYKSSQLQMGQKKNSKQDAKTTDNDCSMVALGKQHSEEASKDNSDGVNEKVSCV

Row | SMILES | EC50 (5-HT2A receptor [1]) [nM] | EC50 (5-HT1A receptor) [nM] | EC50 (5-HT2B receptor) [nM] | EC50 (5-HT2A receptor [2]) [nM] | agonist type in arrestin recruitment assay (in words) (5-HT2A receptor [2]) | EC50 (D1 receptor) [nM] | ED50 (C57BL/6 mice) [mg/kg] | Most Efficacious Dose (C57BL/6 mice) [mg/kg] | Emax (95% CI) (C57BL/6 mice) | induction of head twitch response (in words) (C57BL/6 mice; mouse) | selectivity for the 5-HT2A receptor over the tested adrenergic and dopamine receptors (in words) (5-HT2A receptor [1]; Ca^2+ flux functional assays) | # HTR at Most Efficacious Dose (C57BL/6 mice; mouse) | 5-HT2B % Act @ Max Dose (5-HT2B receptor) [%] | EC50 (5-HT2A receptor [2]; [3]) [nM] | EC50 (D1 receptor; [4]) [nM] | efficacy in HTR assay (in words) (C57BL/6 mice; mouse)
1 | CCCN1C[C@H](C(=O)N(CC)CC)C=C2c3cccc4[nH]cc(c34)C[C@H]21 [Compound 1, (6aR,9R)—N,N-diethyl-7-propyl-4,6,6a,7,8,9-hexahydroindolo[4,3-fg]quinoline-9-carboxamide] | 18.5 | 44.4 | 104 | 2.01 | full agonists | 4.64 | 0.0946 | 1 | 21.63 (18.45-25.78) | robust and dose-dependent HTR |  |  |  |  |  | 
2 | CCCN1C[C@H](C(=O)N[C@H](C)CC)C=C2c3cccc4[nH]cc(c34)C[C@H]21 [Compound 3, (6aR,9R)—N—((R)-sec-butyl)-7-propyl-4,6,6a,7,8,9-hexahydroindolo[4,3-fg]quinoline-9-carboxamide] | 1.57 | 1.79 | 62 | < 0.509 | full agonists | 47.9 | 0.0401 | 0.32 | 25.56 (22.08-29.36) |  | exceptional selectivity | 27.0 |  |  |  | 
3 | CCCN1C[C@H](C(=O)NC(CC)CC)C=C2c3cccc4[nH]cc(c34)C[C@H]21 [Compound 6, (6aR,9R)—N-(pentan-3-yl)-7-propyl-4,6,6a,7,8,9-hexahydroindolo[4,3-fg]quinoline-9-carboxamide] | 11.3 | 36.1 | 253 | 1.91 | full agonists | 18.1 | 0.139 | 1 | 23.06 (19.86-27.47) |  |  |  |  |  |  | 
4 | CCN(CC)C(=O)[C@@H]1C=C2c3cccc4[nH]cc(c34)C[C@H]2N(CCc2ccccc2OC)C1 [Compound 11, (6aR,9R)—N,N-diethyl-7-(2-methoxyphenethyl)-4,6,6a,7,8,9-hexahydroindolo[4,3-fg]quinoline-9-carboxamide] | 216 | 29800 | > 10000 |  | partial agonists |  | 2.21 | 3.2 | 19.79 (12.66-80.7) |  |  | 12.0 | 2.5 | 1.27 | 1590 | low efficacy
5 | CCCN1C[C@H](C(=O)N2[C@@H](C)C[C@@H]2C)C=C2c3cccc4[nH]cc(c34)C[C@H]21 [Compound 4, ((2S,4S)-2,4-dimethylazetidin-1-yl)((6aR,9R)-7-propyl-4,6,6a,7,8,9-hexahydroindolo[4,3-fg]quinolin-9-yl)methanone] | 21.3 | 5.88 | 511 | 1.44 | full agonists | 81.8 | 0.376 | 0.1 | 4.034 (2.965-5.217) |  |  |  |  |  |  | less efficacious
6 | CCN(CC)C(=O)[C@@H]1C=C2c3cccc4[nH]cc(c34)C[C@H]2N(Cc2ccccc2OC)C1 [Compound 10, (6aR,9R)—N,N-diethyl-7-(2-methoxybenzyl)-4,6,6a,7,8,9-hexahydroindolo[4,3-fg]quinoline-9-carboxamide] | 643 | 30600 | > 10000 |  | partial agonists |  | 1.26 | 3.2 | 7.749 (4.126-???) |  |  | 6.5 |  | 8.47 | 2780 | low efficacy
7 | CCN(CC)C(=O)[C@@H]1C=C2c3cccc4[nH]cc(c34)C[C@H]2N(CCCF)C1 [Compound 2, (6aR,9R)—N,N-diethyl-7-(3-fluoropropyl)-4,6,6a,7,8,9-hexahydroindolo[4,3-fg]quinoline-9-carboxamide] | 11.1 | 25.4 | 202 | 2.27 | full agonists | 86.4 | 0.0703 | 0.32 | 20.47 (18.43-22.6) |  |  |  |  |  |  | 
